The record followed here is ChEMBL document CHEMBL4706545, “Antiproliferative effect of mitochondria-targeting allobetulin 1,2,3-triazolium salt derivatives and their mechanism of inducing apoptosis of cancer cells” (Eur J Med Chem, 2020).

Test [1] concerns ECa-109 cell line. In words: Induction of apoptosis in human ECa-109 cells assessed as decrease in caspase-8 incubated for 48 hrs by Western blot analysis. In kind it is functional, cell-based. To be noted: dose 1-4 µM. In general terms: A western blot detects proteins with antibodies after separation by electrophoresis.
Test [2] deals with ECa-109 cell line. In words: Induction of cell cycle arrest in human ECa-109 cells assessed as accumulation in G2/M phase at 4 uM incubated for 48 hrs by PI staining based flow cytometry analysis (reference value: 8.39 %). It counts as functional. In general terms: In flow cytometry, cells or beads pass a laser one at a time.
For test [3], the system named is ECa-109 cell line. Put plainly: Induction of apoptosis in human ECa-109 cells assessed as necrotic cells at 1 uM incubated for 48 hrs by annexin-V-FITC and PI staining based fluorescence microscopic analysis (reference value: 1.19 %). It counts as functional.
Test [4] relates to ECa-109 cell line. Put plainly: Induction of ROS-mediated apoptosis in human ECa-109 cells assessed as necrotic cells at 4 uM incubated for 48 hrs in presence of NAC by annexin V-PE and 7-AAD staining based flow cytometry analysis (reference value: 1.09 %). It counts as functional.
In test [5] the test system is ECa-109 cell line. Put plainly: Induction of ROS-mediated apoptosis in human ECa-109 cells assessed as late apoptotic cells at 4 uM incubated for 48 hrs in presence of NAC by annexin V-PE and 7-AAD staining based flow cytometry analysis (reference value: 2.98 %). It counts as functional.
In the next test the test system is HeLa. Put plainly: Cytotoxicity against human HeLa cells assessed as reduction in cell viability incubated for 48 hrs by MTT assay. In kind it is functional, cell-based.
Test [6] has as its system SGC-7901. Put plainly: Cytotoxicity against human SGC-7901 cells assessed as reduction in cell viability incubated for 48 hrs by MTT assay. It counts as functional, cell-based. The settings on record: SGC-7901, 48 h. A general note: Tetrazolium dyes change colour on reduction, which living cells bring about.
For test [7], the system named is ECa-109 cell line. Put plainly: Cytotoxicity against human ECa-109 cells assessed as reduction in cell viability incubated for 48 hrs by MTT assay. It counts as functional, cell-based. To be noted: ECa-109, 48 h.
Test [8] concerns ECa-109 cell line. In words: Induction of apoptosis in human ECa-109 cells assessed as late apoptotic cells at 1 uM incubated for 48 hrs by annexin-V-FITC and PI staining based fluorescence microscopic analysis (reference value: 2.01 %). In kind it is functional.
For test [9], the system named is ECa-109 cell line. In words: Induction of ROS-mediated apoptosis in human ECa-109 cells assessed as late apoptotic cells at 2 uM incubated for 48 hrs by annexin V-PE and 7-AAD staining based flow cytometry analysis (reference value: 3.89 %). In kind it is functional.
For another test, the system named is HepG2. Put plainly: Cytotoxicity against human HepG2 cells assessed as reduction in cell viability incubated for 48 hrs by MTT assay. In kind it is functional, cell-based. To be noted: HepG2, 48 h.
In test [10] the test system is ECa-109 cell line. In words: Induction of apoptosis in human ECa-109 cells assessed as early apoptotic cells at 4 uM incubated for 48 hrs by annexin-V-FITC and PI staining based fluorescence microscopic analysis (reference value: 0.971 %). It counts as functional.
Test [11] concerns ECa-109 cell line. In words: Induction of apoptosis in human ECa-109 cells assessed as downregulation of Bcl-xl incubated for 48 hrs by Western blot analysis. In kind it is functional, cell-based. The settings on record: dose 1-4 µM.
In a further test the test system is L02. Put plainly: Cytotoxicity against human HL7702 cells assessed as reduction in cell viability incubated for 48 hrs by MTT assay. It counts as ADME, cell-based. The settings on record: L02, 48 h.
For test [12], the system named is SGC-7901. In words: Induction of apoptosis in human SGC-7901 cells assessed as upregulation of Bax incubated for 48 hrs by Western blot analysis. It counts as functional, cell-based. To be noted: dose 1-4 µM.
The test system of test [13] is SGC-7901. In words: Induction of ROS-mediated apoptosis in human SGC-7901 cells assessed as necrotic cells at 4 uM incubated for 48 hrs by annexin V-PE and 7-AAD staining based flow cytometry analysis (reference value: 0.733 %). In kind it is functional.
Test [14] relates to SGC-7901. In words: Induction of cell cycle arrest in human SGC-7901 cells assessed as accumulation in G2/M phase at 4 uM incubated for 48 hrs by PI staining based flow cytometry analysis (reference value: 11.48 %). In kind it is functional.
Test [15] deals with SGC-7901. Put plainly: Induction of ROS-mediated apoptosis in human SGC-7901 cells assessed as necrotic cells at 1 uM incubated for 48 hrs by annexin V-PE and 7-AAD staining based flow cytometry analysis (reference value: 0.733 %). In kind it is functional.
Test [16] deals with SGC-7901. In words: Induction of apoptosis in human SGC-7901 cells assessed as late apoptotic cells at 4 uM incubated for 48 hrs by annexin-V-FITC and PI staining based fluorescence microscopic analysis (reference value: 3.87 %). In kind it is functional.
Test [17] relates to SGC-7901. Put plainly: Induction of apoptosis in human SGC-7901 cells assessed as nuclear fragmentation at 1 to 4 uM incubated for 48 hrs by Hoechst staining based fluorescence microscopic analysis. The settings on record: dose 1-4 µM. It counts as functional, cell-based.
Test [18] relates to SGC-7901. In words: Induction of apoptosis in human SGC-7901 cells assessed as late apoptotic cells at 1 uM incubated for 48 hrs by annexin-V-FITC and PI staining based fluorescence microscopic analysis (reference value: 3.87 %). It counts as functional.
Test [19] relates to SGC-7901. Put plainly: Induction of apoptosis in human SGC-7901 cells assessed as necrotic cells at 4 uM incubated for 48 hrs by annexin-V-FITC and PI staining based fluorescence microscopic analysis (reference value: 1.03 %). In kind it is functional.
The test system of test [20] is SGC-7901. Put plainly: Induction of apoptosis in human SGC-7901 cells assessed as late apoptotic cells incubated for 48 hrs by annexin-V-FITC and PI staining based fluorescence microscopic analysis. In kind it is functional, cell-based. To be noted: dose 1-4 µM.
The subject of test [21] is SGC-7901. In words: Induction of cell cycle arrest in human SGC-7901 cells assessed as accumulation in G0/G1 phase at 4 uM incubated for 48 hrs by PI staining based flow cytometry analysis (reference value: 57.39 %). In kind it is functional.
In test [22] the test system is SGC-7901. Put plainly: Induction of apoptosis in human SGC-7901 cells assessed as viable cells at 1 uM incubated for 48 hrs by annexin-V-FITC and PI staining based fluorescence microscopic analysis (reference value: 93.8 %). To be noted: read-out: Activity. It counts as functional.
The test system of test [23] is SGC-7901. In words: Induction of apoptosis in human SGC-7901 cells assessed as early apoptotic cells at 1 uM incubated for 48 hrs by annexin-V-FITC and PI staining based fluorescence microscopic analysis (reference value: 1.87 %). It counts as functional.
Test [24] concerns SGC-7901. Put plainly: Induction of ROS-mediated apoptosis in human SGC-7901 cells assessed as early apoptotic cells at 2 uM incubated for 48 hrs by annexin V-PE and 7-AAD staining based flow cytometry analysis (reference value: 1.89 %). In kind it is functional.
In test [25] the test system is SGC-7901. In words: Induction of ROS-mediated apoptosis in human SGC-7901 cells assessed as necrotic cells at 2 uM incubated for 48 hrs by annexin V-PE and 7-AAD staining based flow cytometry analysis (reference value: 0.733 %). It counts as functional.
Test [26] concerns SGC-7901. In words: Induction of ROS-mediated apoptosis in human SGC-7901 cells assessed as late apoptotic cells at 1 uM incubated for 48 hrs by annexin V-PE and 7-AAD staining based flow cytometry analysis (reference value: 3.82 %). In kind it is functional.
The test system of test [27] is SGC-7901. Put plainly: Induction of ROS-mediated apoptosis in human SGC-7901 cells assessed as late apoptotic cells at 1 uM incubated for 48 hrs in presence of NAC by annexin V-PE and 7-AAD staining based flow cytometry analysis (reference value: 3.45 %). It counts as functional.
Test [28] deals with SGC-7901. In words: Induction of apoptosis in human SGC-7901 cells assessed as decrease in PARP incubated for 48 hrs by Western blot analysis. In kind it is functional, cell-based. To be noted: dose 1-4 µM.
Test [29] relates to SGC-7901. In words: Induction of apoptosis in human SGC-7901 cells assessed as decrease in caspase-9 incubated for 48 hrs by Western blot analysis. It counts as functional, cell-based. To be noted: dose 1-4 µM.
For test [30], the system named is SGC-7901. Put plainly: Induction of apoptosis in human SGC-7901 cells assessed as decrease in caspase-3 incubated for 48 hrs by Western blot analysis. In kind it is functional, cell-based. The settings on record: dose 1-4 µM.
For test [31], the system named is SGC-7901. In words: Induction of ROS-mediated apoptosis in human SGC-7901 cells assessed as late apoptotic cells at 4 uM incubated for 48 hrs in presence of NAC by annexin V-PE and 7-AAD staining based flow cytometry analysis (reference value: 3.45 %). In kind it is functional.

The IC50 is the concentration needed to halve the response being measured.

Calls of active or inactive are those of the source. No cut-off for these calls is given here.

Consider `COc1ccccc1Cn1n[n+](C)c2c1C(C)(C)[C@@H]1CC[C@]3(C)[C@H](CC[C@@H]4[C@H]5[C@H]6OC[C@@]5(CCC6(C)C)CC[C@]43C)[C@@]1(C)C2.[I-]`, for which the Activity entry with ECa-109 cell line [1] was “Dose-dependent effect”; with ECa-109 cell line [2], 22.73%; in the test on ECa-109 cell line [3], 0.624%; with ECa-109 cell line [4], 3.83%; in the test on ECa-109 cell line [5], 78.9%; in the test with ECa-109 cell line [8], 12.9%. The Activity in the test on ECa-109 cell line [9] is 28.7%; with ECa-109 cell line [10], 2.92%; with ECa-109 cell line [11], “Dose-dependent effect”. In addition, the IC50 with HeLa was 1490 nM; in the test with SGC-7901 [6] it was 1920 nM; in the test on ECa-109 cell line [7], 1040 nM; in the test with HepG2 it was 1520 nM; in the test on L02 it was 1590 nM.

In the case of `C[n+]1nn(Cc2c(F)cccc2Cl)c2c1C[C@]1(C)[C@H]3CC[C@@H]4[C@H]5[C@H]6OC[C@@]5(CCC6(C)C)CC[C@@]4(C)[C@]3(C)CC[C@H]1C2(C)C.[I-]`, the Activity result with SGC-7901 [12] is “Dose-dependent effect”; with SGC-7901 [13], 0.028%; with SGC-7901 [14], 18.35%; in the test with SGC-7901 [15], 0.838%; with SGC-7901 [16] it was 97.3%; in the test with SGC-7901 [18] it was 4.79%. For the same molecule, the Activity in the test on SGC-7901 [19] is 0.158%; with SGC-7901 [20] it was “Dose-dependent effect”; with SGC-7901 [21], 59.38%; with SGC-7901 [23], 10.7%; in the test with SGC-7901 [24], 26.5%; with SGC-7901 [25], 0.956%. The Activity with SGC-7901 [26] was 4.97%; in the test on SGC-7901 [27] it was 4.96%; with SGC-7901 [28] it was “Dose-dependent effect”; with SGC-7901 [29], “Dose-dependent effect”; in the test with SGC-7901 [30] it was “Dose-dependent effect”; in the test with SGC-7901 [31], 77.8%. Also, the result in the test on SGC-7901 [17] was Active. Besides, in the test on SGC-7901 [22], the viability at 1 µM came to 83%. The IC50 in the test with HeLa is 2160 nM; in the test with SGC-7901 [6], 1120 nM; in the test with ECa-109 cell line [7] it was 2630 nM; in the test on HepG2, 2620 nM; in the test with L02 it was 2330 nM.
